Experimental data: US4668669A, “Pristinamycin IIB derivatives and compositions containing them” (Rhone-Poulenc Sante, priority 1985, dated 1987)
Starred links: 1 amine or outer side, 2 acyl side, 3 side chain; linkers in the order of their positions; H or OH if unused. Positions of bridges follow the written chain, without caps; N, C: chain ends. Non-standard residues stand in square brackets, D forms with d. Residues, ends and D or L forms follow the SMILES beside them. ξ: configuration not given here. *: point of attachment. X6 = CC(CN1CCN(C)CC1)SC=C1CN([*:1])C(C(=O)[*:2])CC1=O; X4 = CN(C)CC(CN(C)C)SCC1CN([*:1])C(C(=O)[*:2])CC1=O; X5 = CN1CCN(CCCSCC2CN([*:1])C(C(=O)[*:2])CC2=O)CC1; X2 = CN1CCC(SCC2CN([*:1])C(C(=O)[*:2])CC2=O)CC1; ξNMePhe(4-NMe2) = CNC(Cc1ccc(N(C)C)cc1)C(=O)O; X1 = CN(C)CCOC=C1CN([*:1])C(C(=O)[*:2])CC1=O; X3 = CN(C)CCNC=C1CN([*:1])C(C(=O)[*:2])CC1=O; X7 = CN(C)CCCSCC1CN([*:1])C(C(=O)[*:2])CC1=O; Picolinoyl(3-OH) = O=C(c1ncccc1O)*; NMeF = CN[CH](Cc1ccccc1)C(=O)O; Phg = N[CH](C(=O)O)c1ccccc1; Abu = CC[CH](N)C(=O)O

Experiment: Solubility in water (aqueous solution obtained)
Format: physicochemical
Conditions: distilled water, no hydrochloride stated
With “5γ-[N-(carboxymethyl)methylamino]-5γ-deoxypristinamycin IA [product K]” the “Solubility: concentration of aqueous solution” value was 2%. In the case of CCC1NC(=O)C(NC(=O)c2ncccc2O)C(C)OC(=O)C(c2ccccc2)NC(=O)C2CC(=O)C(=CNCCN(C)C)CN2C(=O)C(Cc2ccc(N(C)C)cc2)N(C)C(=O)C2CCCN2C1=O (centres unmarked) [product AG, 5δ-(2-dimethylaminoethyl)aminomethylenepristinamycin IA] ({Picolinoyl(3-OH)}-T[Abu]P[ξNMePhe(4-NMe2)][X3][Phg]; ester 1-C; configuration not given here), the “Solubility: concentration of aqueous solution” value is reported as 1%.

Experiment: Solubility in water (aqueous solution obtained)
Format: physicochemical
Conditions: hydrochloride / dissolved with aqueous hydrochloric acid and distilled water
Source text: In the examples described below, unless stated otherwise, all the products can be dissolved at a strength of at least 2%, in the form of hydrochloride.
With “5γ-Deoxy-5γ-(2-dimethylaminoethyl)aminopristinamycin IA [compound 2]” the “Solubility: concentration of aqueous solution, in the form of hydrochloride” value (“Solubility: concentration … of hydrochloride” for short) was 10%. In the case of “5γ-deoxy-5γ-(4-diethylamino-2-methylbutyl)aminopristinamycin IA [product F]”, the “Solubility: concentration … of hydrochloride” value is reported as 10%. With “5γ-deoxy-5γ-[N-(2-dimethylaminoethyl)-N-methylamino]pristinamy cin IA [product D]” the “Solubility: concentration … of hydrochloride” value was 10%. With “5γ-deoxy-5γ-[N-(2-dimethylaminoethyl)acetamido]pristinamycin IA [product L]” the “Solubility: concentration … of hydrochloride” value was 10%. For “5γ-deoxy-5γ-[N-(3-dimethylaminopropyl)acetamido]pristinamycin IA [product M]”, the “Solubility: concentration … of hydrochloride” value was 10%. With “5γ-deoxy-5γ-dimethylaminopristinamycin IA [product B]” the “Solubility: concentration … of hydrochloride” value was 2%. In the case of “5γ-deoxy-5γ-methylaminopristinamycin IA [Reference Example 9]”, the “Solubility: concentration … of hydrochloride” value is reported as 1%. In the case of “5γ-deoxy-(3-dimethylaminopropyl)-5γ-amino-pristinamycin IA [product A]”, the “Solubility: concentration … of hydrochloride” value is reported as 10%. For “5δ-(1-methyl-4-piperidyl)aminomethylenepristinamycin IA [product AT]”, the “Solubility: concentration … of hydrochloride” value was 10%. With “5δ-(2-diethylaminoethyl)thiomethylpristinamycin IA [product AF1]” the “Solubility: concentration … of hydrochloride” value was 5%. In the case of “5δ-(2-dimethylaminoethyl)thiomethylenepristinamycin IA [product AX]”, the “Solubility: concentration … of hydrochloride” value is reported as 1%. With “5δ-(3-dimethylamino-2-propyl)thiomethylenepristinamycin IA [Reference Example 57]” the “Solubility: concentration … of hydrochloride” value was 5%. For “5δ-(3-dimethylaminopropyl)thiomethylpristinamycin IA [product AA]”, the “Solubility: concentration … of hydrochloride” value was 10%. In the case of “5δ-(5-diethylamino-2-pentyl)thiomethylenepristinamycin IA [Reference Example 58]”, the “Solubility: concentration … of hydrochloride” value is reported as 10%. In the case of “5δ-[2-(4-methyl-1-piperazinyl)ethyl]thiomethylpristinamycin IA [product AC]”, the “Solubility: concentration … of hydrochloride” value is reported as 5%. With “26-(2-Diisopropylaminoethyl)sulphonylpristinamycin IIB [Example 25]” the “Solubility: concentration … of hydrochloride” value was 5%. For CC1=CC(O)CC(=O)Cc2nc(co2)C(=O)N2CCC([S+]([O-])CCN(C)C)C2C(=O)OC(C(C)C)C(C)C=CC(=O)NCC=C1 (centres unmarked) [Example 4, 26-(2-dimethylaminoethyl)sulphinylpristinamycin IIB], the “Solubility: concentration … of hydrochloride” value was 3.7%. In the case of CCN(C)CC[S+]([O-])C1CCN2C(=O)c3coc(n3)CC(=O)CC(O)C=C(C)C=CCNC(=O)C=CC(C)C(C(C)C)OC(=O)C12 (centres unmarked) [Example 5, 2-(N-methyl-N-ethyl-2-aminoethyl)sulphinylpristinamycin IIB], the “Solubility: concentration … of hydrochloride” value is reported as 10%. In the case of CC1=CC(O)CC(=O)Cc2nc(co2)C(=O)N2CCC([S+]([O-])CCCN(C)C)C2C(=O)OC(C(C)C)C(C)C=CC(=O)NCC=C1 (centres unmarked) [Example 6, 26-(3-dimethylaminopropyl)sulphinylpristinamycin IIB], the “Solubility: concentration … of hydrochloride” value is reported as 2%. For CC1=CC(O)CC(=O)Cc2nc(co2)C(=O)N2CCC([S+]([O-])CC(Cc3ccccc3)N(C)C)C2C(=O)OC(C(C)C)C(C)C=CC(=O)NCC=C1 [Example 11, 26-[(2S)-2-dimethylamino-3-phenylpropyl]sulphinylpristinamycin IIB], the “Solubility: concentration … of hydrochloride” value was 1%. In the case of CCCCCCCCCCNCC[S+]([O-])C1CCN2C(=O)c3coc(n3)CC(=O)CC(O)C=C(C)C=CCNC(=O)C=CC(C)C(C(C)C)OC(=O)C12 (centres unmarked) [Example 18, 26-(2-decylaminoethyl)sulphinylpristinamycin IIB], the “Solubility: concentration … of hydrochloride” value is reported as 1%. With CCC1NC(=O)C(NC(=O)c2ncccc2O)C(C)OC(=O)C(c2ccccc2)NC(=O)C2CC(=O)C(=CSC(C)CN3CCN(C)CC3)CN2C(=O)C(Cc2ccc(N(C)C)cc2)N(C)C(=O)C2CCCN2C1=O (centres unmarked) [product AAN, 5δ-[3-(4-methyl-1-piperazinyl)-2-propyl]thiomethylenepristinamycin IA] ({Picolinoyl(3-OH)}-T[Abu]P[ξNMePhe(4-NMe2)][X6][Phg]; ester 1-C; configuration not given here) the “Solubility: concentration … of hydrochloride” value was 10%. With CCC1NC(=O)C(NC(=O)c2ncccc2O)C(C)OC(=O)C(c2ccccc2)NC(=O)C2CC(=O)C(=COCCN(C)C)CN2C(=O)C(Cc2ccc(N(C)C)cc2)N(C)C(=O)C2CCCN2C1=O (centres unmarked) [product AAQ, 5δ-(2-dimethylaminoethoxymethylene)pristinamycin IA] ({Picolinoyl(3-OH)}-T[Abu]P[ξNMePhe(4-NMe2)][X1][Phg]; ester 1-C; configuration not given here) the “Solubility: concentration … of hydrochloride” value was 1%. In the case of CCC1NC(=O)C(NC(=O)c2ncccc2O)C(C)OC(=O)C(c2ccccc2)NC(=O)C2CC(=O)C(CSCCCN(C)C)CN2C(=O)C(Cc2ccccc2)N(C)C(=O)C2CCCN2C1=O (centres unmarked) [product AB, 5δ-(3-dimethylaminopropyl)thiomethylvirginiamycin S] ({Picolinoyl(3-OH)}-T[Abu]P[NMeF][X7][Phg]; ester 1-C; configuration not given here), the “Solubility: concentration … of hydrochloride” value is reported as 10%. With CCC1NC(=O)C(NC(=O)c2ncccc2O)C(C)OC(=O)C(c2ccccc2)NC(=O)C2CC(=O)C(CSCCCN3CCN(C)CC3)CN2C(=O)C(Cc2ccc(N(C)C)cc2)N(C)C(=O)C2CCCN2C1=O (centres unmarked) [product AD, 5δ-[3-(4-methyl-1-piperazinyl)propyl]thiomethylpristinamycin IA] ({Picolinoyl(3-OH)}-T[Abu]P[ξNMePhe(4-NMe2)][X5][Phg]; ester 1-C; configuration not given here) the “Solubility: concentration … of hydrochloride” value was 10%. In the case of CCC1NC(=O)C(NC(=O)c2ncccc2O)C(C)OC(=O)C(c2ccccc2)NC(=O)C2CC(=O)C(CSC(CN(C)C)CN(C)C)CN2C(=O)C(Cc2ccc(N(C)C)cc2)N(C)C(=O)C2CCCN2C1=O (centres unmarked) [product AE, 5δ-[1,3-bis(dimethylamino)-2-propyl]thiomethylpristinamycin IA] ({Picolinoyl(3-OH)}-T[Abu]P[ξNMePhe(4-NMe2)][X4][Phg]; ester 1-C; configuration not given here), the “Solubility: concentration … of hydrochloride” value is reported as 7.5%. With CCC1NC(=O)C(NC(=O)c2ncccc2O)C(C)OC(=O)C(c2ccccc2)NC(=O)C2CC(=O)C(CSC3CCN(C)CC3)CN2C(=O)C(Cc2ccc(N(C)C)cc2)N(C)C(=O)C2CCCN2C1=O (centres unmarked) [product AF, 5δ-(1-methyl-4-piperidyl)thiomethylpristinamycin IA] ({Picolinoyl(3-OH)}-T[Abu]P[ξNMePhe(4-NMe2)][X2][Phg]; ester 1-C; configuration not given here) the “Solubility: concentration … of hydrochloride” value was 5%.
